Where a name gives a salt, the structure may show the parent alone. Some results are limits rather than exact numbers.

For one test, the target named is human σ1 receptor (Homo sapiens, UniProt Q99720). The test can be described thus: biochemical. The format is binding.
human σ1 receptor, sequence (Q99720 whole entry): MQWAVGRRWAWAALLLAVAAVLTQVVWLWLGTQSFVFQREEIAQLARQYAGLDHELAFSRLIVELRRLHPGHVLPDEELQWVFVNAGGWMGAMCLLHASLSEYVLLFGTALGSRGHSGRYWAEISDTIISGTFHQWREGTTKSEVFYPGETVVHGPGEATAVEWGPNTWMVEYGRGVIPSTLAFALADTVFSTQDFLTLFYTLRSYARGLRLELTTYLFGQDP
Conditions: not given
Further details: μ and σ1 dual binding: key to the marks not given beside the values.
As to `CC(=O)Nc1ccccc1CCN1CCC2(CC1)CN(c1ccccc1)C(=O)C(C)O2` (stereo not drawn) [Example 245, N-(2-(2-(2-methyl-3-oxo-4-phenyl-1-oxa-4,9-diazaspiro[5.5]undecan-9-yl)ethyl)phenyl)acetamide], the “μ and σ1 dual binding” value was “++”.

`CC1OC2(CCN(CCc3cccc(C(N)=O)c3)CC2)CN(c2ccccc2)C1=O` (stereo not drawn) [Example 266, 3-(2-(2-methyl-3-oxo-4-phenyl-1-oxa-4,9-diazaspiro[5.5]undecan-9-yl)ethyl)benzamide] yielded a Ki of under 500 nM.

In the case of `CC1OC2(CCN(CCc3ccc(Cl)cn3)CC2)CN(c2ccccc2)C1=O` (stereo not drawn) [Example 38, 9-(2-(5-chloropypridin-2-yl)ethyl)-2-methyl-4-phenyl-1-oxa-4,9-diazaspiro[5.5]undecan-3-one hydrochloride], the Ki is under 500 nM.

The compound `CNS(=O)(=O)c1cccc(CCN2CCC3(CC2)CN(c2ccccc2)C(=O)C(C)O3)c1` (stereo not drawn) [Example 93, N-methyl-3-(2-(2-methyl-3-oxo-4-phenyl-1-oxa-4,9-diazaspiro[5.5]undecan-9-yl)ethyl)benzenesulfonamide] registered a Ki of under 500 nM.

For the compound `CC1OC2(CCN(CCc3cccc(C(F)(F)F)n3)CC2)CN(Cc2ccc(F)cn2)C1=O.Cl` (stereo not drawn) [Example 49, 4-((5-fluoropyridin-2-yl)methyl)-2-methyl-9-(2-(6-(trifluoromethyl)pyridin-2-yl)ethyl)-1-oxa-4,9-diazaspiro[5.5]undecan-3-one hydrochloride], the “μ and σ1 dual binding” value is “++”.

For `C[C@@H]1OC2(CCN(C[C@@H](O)c3ccccc3)CC2)CN(c2ccccc2)C1=O` [Example 151c, (S)-9-((S)-2-hydroxy-2-phenylethyl)-2-methyl-4-phenyl-1-oxa-4,9-diazaspiro[5.5]undecan-3-one], the Ki was under 500 nM.

On to `CC1OC2(CCN(CCc3ccccn3)CC2)CN(c2cnccc2C(F)(F)F)C1=O.Cl` (stereo not drawn) [Example 101, 2-methyl-9-(2-(pyridin-2-yl)ethyl)-4-(4-(trifluoromethyl)pyridin-3-yl)-1-oxa-4,9-diazaspiro[5.5]undecan-3-one hydrochloride], for which the “μ and σ1 dual binding” value is given as “++”.

`CC1OC2(CCN(CCc3cncc(C(F)(F)F)c3)CC2)CN(c2ccccc2)C1=O` (stereo not drawn) [Example 112, 2-methyl-4-phenyl-9-(2-(5-(trifluoromethyl)pyridin-3-yl)ethyl)-1-oxa-4,9-diazaspiro[5.5]undecan-3-one hydrochloride] came in with a Ki of under 500 nM.

Consider `CC1OC2(CCN(CC(O)c3ccccc3)CC2)CN(c2ccccc2)C1=O` (mixture of isomers) [Example 150, 9-(2-hydroxy-2-phenylethyl)-2-methyl-4-phenyl-1-oxa-4,9-diazaspiro[5.5]undecan-3-one], for which the Ki was over 500 nM.

With `CC1OC2(CCN(CCc3ccccc3)CC2)CN(c2nc3ccccc3s2)C1=O.Cl` (stereo not drawn) [Example 204, 4-(benzo[d]thiazol-2-yl)-2-methyl-9-phenethyl-1-oxa-4,9-diazaspiro[5.5]undecan-3-one hydrochloride], the “μ and σ1 dual binding” value is reported as “++”.

The test is the same for the next values; noted with them: combined class from Ki-σ1 (human σ1 receptor, A1) and Ki-μ (human μ-opioid receptor, A2) radioligand binding.
For the compound `CC(C)C(=O)Nc1cccc(CCN2CCC3(CC2)CN(c2ccccc2)C(=O)C(C)O3)c1` (stereo not drawn) [Example 247, N-(3-(2-(2-methyl-3-oxo-4-phenyl-1-oxa-4,9-diazaspiro[5.5]undecan-9-yl)ethyl)phenyl)isobutyramide], the “μ and σ1 dual binding” value is reported as “++”.

With `COc1ccccc1N1CC2(CCN(CCc3ccccc3)CC2)OCC1=O` [Example 4, 4-(2-methoxyphenyl)-9-phenethyl-1-oxa-4,9-diazaspiro[5.5]undecan-3-one], the “μ and σ1 dual binding” value is “++”.

With `CC(C)C1OC2(CCN(CCc3ccccc3OCCO)CC2)CN(c2ccccc2F)C1=O` (stereo not drawn) [Example 281, 4-(2-fluorophenyl)-9-(2-(2-hydroxyethoxy)phenethyl)-2-isopropyl-1-oxa-4,9-diazaspiro[5.5]undecan-3-one], the “μ and σ1 dual binding” value is recorded as “++”.

The test is the same for the next values; noted with them: read-out: μ and σ1 dual binding.
In the case of `CC1OC2(CCN(CCc3ccccc3)CC2)CN(c2nccs2)C1=O` (stereo not drawn) [Example 209, 2-methyl-9-phenethyl-4-(thiazol-2-yl)-1-oxa-4,9-diazaspiro[5.5]undecan-3-one hydrochloride], the Ki is under 500 nM.

With `CC(C)C1OC2(CCN(CCc3csc(NC(=O)OC(C)(C)C)n3)CC2)CN(c2ccccc2F)C1=O` (stereo not drawn) [Example 117, tert-butyl (4-(2-(4-(2-fluorophenyl)-2-isopropyl-3-oxo-1-oxa-4,9-diazaspiro[5.5]undecan-9-yl)ethyl)thiazol-2-yl)carbamate], the Ki is over 500 nM.

On to `O=C1N(c2ncccc2C(F)(F)F)CC2(CCN(CCc3ccccc3F)CC2)OC12CC2` [Example 220, 8-(2-fluorophenethyl)-12-(3-(trifluoromethyl)pyridin-2-yl)-4-oxa-8,12-diazadispiro[2.1.5.3]tridecan-13-one hydrochloride], for which the Ki was under 500 nM.

In the case of `CC1OC2(CCN(CCc3cn[nH]c3)CC2)CN(c2ccccc2)C1=O` (stereo not drawn) [Example 147, 9-(2-(1H-pyrazol-4-yl)ethyl)-2-methyl-4-phenyl-1-oxa-4,9-diazaspiro[5.5]undecan-3-one], the Ki was over 500 nM.

For `CC(C)C1OC2(CCN(CCc3cccnc3[N+](=O)[O-])CC2)CN(c2ccccc2F)C1=O` (stereo not drawn) [Example 39, 4-(2-fluorophenyl)-2-isopropyl-9-(2-(2-nitropyridin-3-yl)ethyl)-1-oxa-4,9-diazaspiro[5.5]undecan-3-one], the Ki was over 500 nM.

Regarding `CC1CN(Cc2nccn2C)CC2(CCN(CCc3ccccc3)CC2)O1` (stereo not drawn) [Example 327, 2-methyl-4-((1-methyl-1H-imidazol-2-yl)methyl)-9-phenethyl-1-oxa-4,9-diazaspiro[5.5]undecane dihydrochloride], the Ki is under 500 nM.

`O=C1N(CCO)CC2(CCN(CCc3ccccc3)CC2)OC12CC2` [Example 310, 12-(2-hydroxyethyl)-8-phenethyl-4-oxa-8,12-diazadispiro[2.1.5.3]tridecan-13-one hydrochloride]: the Ki was over 500 nM.

On to `CC1CN(Cc2ccccn2)CC2(CCN(CCc3ccccc3)CC2)O1` (stereo not drawn) [Example 330, 2-methyl-9-phenethyl-4-(pyridin-2-ylmethyl)-1-oxa-4,9-diazaspiro[5.5]undecane hydrochloride], for which the Ki was under 100 nM.

`CC1CN(Cc2ccccc2)CC2(CCN(CCc3ccccc3)CC2)O1` (stereo not drawn) [Example 335, 4-benzyl-2-methyl-9-phenethyl-1-oxa-4,9-diazaspiro[5.5]undecane dihydrochloride]: the Ki is under 100 nM.

For the compound `Oc1cccc(CCN2CCC3(CC2)CN(c2ccccc2)CCO3)c1` [Example 322, 3-(2-(4-phenyl-1-oxa-4,9-diazaspiro[5.5]undecan-9-yl)ethyl)phenol], the Ki is under 500 nM.

As to `O=C1N(c2ccccc2)CC2(CCN(CCc3ccccn3)CC2)OC12CC2` [Example 90, 12-phenyl-8-[2-(pyridin-2-yl)ethyl]-4-oxa-8,12-diazaspiro[2.1.5.3]tridecan-13-one], the Ki was under 100 nM.

As for `CC1OC2(CCN(CCn3nccc3N)CC2)CN(c2ccccc2)C1=O` (stereo not drawn) [Example 305, 9-(2-(5-amino-1H-pyrazol-1-yl)ethyl)-2-methyl-4-phenyl-1-oxa-4,9-diazaspiro[5.5]undecan-3-one hydrochloride], the Ki was over 500 nM.

Consider `CC1OC2(CCN(CC(=O)N(C)c3ccccc3)CC2)CN(c2ccccc2)C1=O` (stereo not drawn) [Example 315, N-methyl-2-(2-methyl-3-oxo-4-phenyl-1-oxa-4,9-diazaspiro[5.5]undecan-9-yl)-N-phenylacetamide hydrochloride], for which the Ki was over 500 nM.

Take `CNS(=O)(=O)c1ccc(CCN2CCC3(CC2)CN(c2ccccc2)C(=O)C(C)O3)cc1` (stereo not drawn) [Example 107, N-methyl-4-(2-(2-methyl-3-oxo-4-phenyl-1-oxa-4,9-diazaspiro[5.5]undecan-9-yl)ethyl)benzenesulfonamide]: the Ki is over 500 nM.

Take `CC1OC2(CCN(CCc3ccccc3)CC2)CN(c2cnccc2C(F)(F)F)C1=O` (stereo not drawn) [Example 214, 2-methyl-9-phenethyl-4-(4-(trifluoromethyl)pyridin-3-yl)-1-oxa-4,9-diazaspiro[5.5]undecan-3-one hydrochloride]: the Ki is under 100 nM.

On to `Oc1ccccc1CCN1CCC2(CC1)CN(Cc1ccccc1)CCO2` [Example 299, 2-(2-(4-benzyl-1-oxa-4,9-diazaspiro[5.5]undecan-9-yl)ethyl)phenol], for which the Ki was under 100 nM.

As for `CNC(=O)CCN1CC2(CCN(CCc3ccccc3)CC2)OC2(CC2)C1=O` [Example 275, N-methyl-3-[13-oxo-8-phenethyl-4-oxa-8,12-diazadispiro[2.1.5.3]tridecan-12-yl]propanamide hydrochloride], the Ki is over 500 nM.

Take `CC1OC2(CCN(CCc3ccccc3)CC2)CN(CC(C)(C)O)C1=O` (stereo not drawn) [Example 183, 4-(2-hydroxy-2-methylpropyl)-2-methyl-9-phenethyl-1-oxa-4,9-diazaspiro[5.5]undecan-3-one]: the Ki was over 500 nM.

Consider `CC1OC2(CCN(CCc3ccccc3)CC2)CN(c2ncccc2F)C1=O` (stereo not drawn) [Example 208, 4-(3-fluoropyridin-2-yl)-2-methyl-9-phenethyl-1-oxa-4,9-diazaspiro[5.5]undecan-3-one], for which the Ki was under 100 nM.

`CC1OC2(CCN(CCc3ccccc3)CC2)CN(c2ccccc2F)C1=O` (stereo not drawn) [Example 192, 4-(2-fluorophenyl)-2-methyl-9-phenethyl-1-oxa-4,9-diazaspiro[5.5]undecan-3-one hydrochloride]: the Ki was under 100 nM.

As for `Oc1cccc(N2CCOC3(CCN(CCc4ccccc4)CC3)C2)c1` [Example 316, 3-(9-phenethyl-1-oxa-4,9-diazaspiro[5.5]undecan-4-yl)phenol], the Ki was under 500 nM.

For `O=C(O)CC1OC2(CCN(CCc3ccccc3)CC2)CN(c2ccccc2)C1=O` (stereo not drawn) [Example 270, 2-(3-oxo-9-phenethyl-4-phenyl-1-oxa-4,9-diazaspiro[5.5]undecan-2-yl)acetic acid hydrochloride], the Ki is over 500 nM.

Consider `CC(C)OCCN1CCC2(CC1)CN(c1ccccc1)C(=O)C(C)O2` (stereo not drawn) [Example 122, 9-(2-isopropoxyethyl)-2-methyl-4-phenyl-1-oxa-4,9-diazaspiro[5.5]undecan-3-one], for which the Ki is over 500 nM.

These data come from patent US10703765B2 (priority 2014, dated 2020).
